Laboratory results from patent US12458614B2, “Therapeutic agents for improved mobility and cognitive function and for treating neurodegenerative diseases and lysosomal storage disorders” (priority 2017, dated 2025).
“And” between values parts separate entries of the source, which are not always exact repeats. Equal values may be shown once.

Assays:
[1] = system: microtubule-associated protein 1A/1B-light chain 3-phosphatidylethanolamine conjugate (LC3-II); test: LC3-II levels relative to tubulin loading control; type: in vivo, mouse; conditions: NPC1−/− mice, 0.1 g/kg body weight daily from 3 weeks, sacrificed at 8 weeks
Protocol: The Niemann-Pick Disease Type C (NPC) mouse model shares a number of pathological features with Alzheimer's disease (AD) as described herein. […] Mice were sacrificed at 8 weeks of age. Levels of amyloid precursor protein C-terminal fragments (APP-CTFs) were evaluated relative to total amyloid precursor protein (APP) levels in the cerebellum for wild type, untreated wild type NPC1^−/− mice, and AL-treated wild type NPC1^−/− mice. Levels of microtubule-associated protein 1A/1B-light chain 3-phosphatidylethanolamine conjugate (LC3-II) were also evaluated relative to levels of tubulin loading control for wild type, untreated wild type NPC1^−/− mice, and AL-treated wild type NPC1^−/− mice.

[2] = system: Sandhoff disease model, Hexb−/− mouse; test: Bar crossing test; type: in vivo; conditions: Sandhoff mice, 0.1 g/kg from 3 weeks of age
Text: This study made use of a mouse model of Sandhoff disease, the Hexb^−/− mouse, as descrbed in Jeyakumar et al. (Jeyakumar, M. et al. (1999) Proc. Natl. Acad. Sci. USA 96: 6388-6393). The bar crossing test is a method for assessing motor function in mice in which the mouse is placed hanging from the centre of a horizontal bar by its front limbs. A wild-type mouse with normal motor function will be able to engage its hind limbs and thereby move to one of the platforms at either end of the bar, and in doing so complete the test. […] In FIG. 7 B, acetyl-leucine treatment of 0.1 g/kg body weight was provided from 3 weeks of age. The acetyl-leucine treated Sandhoff mice retained the ability to complete the test up to 13 weeks of age (inclusive). Data shown is the mean of 6 mice per group. The treated Sandhoff mice retained the ability to complete the test up to 13 weeks of age (inclusive).

[3] = system: person with gait problems and postural imbalance; test: Case study Example 25, quantitative gait analysis; type: in vivo, human
Protocol: The patient was then treated with Tanganil® (500 mg) in 3 separate doses throughout the day—1 g upon waking, 1 g prior to lunch and 1 g prior to the evening meal for one week, followed by 2 g upon waking, 1.5 g prior to lunch and 1.5 g prior to the evening meal.

[4] = system: subjects with no apparent dysfunction in cognitive ability or movement/balance; test: Psychomotor Vigilance Task (Mind Metrics App); type: in vivo, human
Text: For example, the Psychomotor Vigilance Task (PVT) is a sustained-attention, reaction-timed task that measures the speed with which subjects respond to a visual stimulus. The subject monitors a screen and presses the screen as quickly as possible upon the appearance of visual stimuli. The visual stimuli will then disappear and reappear (at irregular time intervals) e.g., 10 times over the course of the test, with the subject touching the screen as quickly as possible upon each reappearance. Test performance is quantified from an average of the e.g. 10 reaction times. The subject's reaction speed and alertness was assessed using the Mind Metrics App (Psychomotor Vigilance Task, 10 trials per test). The Psychomotor Vigilance Task (PVT) is a sustained-attention, reaction-timed task that measures the speed with which subjects respond to a visual stimulus. The subject is required to monitor a screen and press the screen as quickly as possible upon the appearance of visual stimuli. The visual stimuli will then disappear and reappear (at irregular time intervals) 10 times over the course of the test, with the subject touching the screen as quickly as possible upon each reappearance. Test performance is quantified from an average of the 10 reaction times. […] The subject was assessed for 2 weeks prior to taking acetyl-leucine, which constitutes the baseline period. […] Medication was taken at least 2 hours after and 30 minutes prior to eating. The 5 g daily dose was taken in 3 separate doses throughout the day—2 g upon waking, 1.5 g prior to lunch and 1.5 g prior to the evening meal. Daily treatments and assessments continued for 4 weeks. […]

[5] = system: Sandhoff disease model, Hexb−/− mouse; test: Step cycle time; type: in vivo; conditions: Sandhoff mice, 12 weeks of age
Protocol: This study made use of a mouse model of Sandhoff disease, the Hexb^−/− mouse, as descrbed in Jeyakumar et al. (Jeyakumar, M. et al. (1999) Proc. Natl. Acad. Sci. USA 96: 6388-6393). Step cycle is the length of time taken during locomotion by a limb from the time it leaves the ground until it leaves the ground on the next occasion. Step cycle time was assessed at 12 weeks of age in untreated and acetyl-leucine treated Sandhoff model mice. Acetyl-leucine treatment constituted 0.1 g/kg body weight acetyl-leucine from 3 weeks of age.

[6] = system: subjects with no apparent dysfunction in cognitive ability or movement/balance; test: Balancing ability (eyes closed, non-dominant foot lifted); type: in vivo, human
Protocol: Due to reported improvement in balance on treatment we measured balancing ability at the end of the treatment period and at the end of the washout period. This assessment required the subject to close their eyes and lift their non-dominant foot around 6 inches off the ground. The subject was then timed to see how long they could remain upright and without significant wobbles. This was repeated three times, and the values averaged. […] This assessment required the subject to close their eyes and lift their non-dominant foot around 6 inches off the ground. The subject was then timed to see how long they could remain upright and without significant wobbles. This was repeated three times, and the values averaged. We measured balancing ability at the end of the treatment period and at the end of the washout period. This assessment required the subject to close their eyes and lift their non-dominant foot around 6 inches off the ground. The subject was then timed to see how long they could remain upright and without significant wobbles. This was repeated three times, and the values averaged.

Npc1−/− mice = test: Observation of coat condition and disease symptoms; type: in vivo, mouse; conditions: Npc1−/− mice treated from weaning
Text: Separate groups of Npc1^-/- and Npc1^+/+ mice were left untreated, as controls.

[7] = one line per subject (age/gender 66 M, 29 M, 55 F, 50 M, 53 M, 48 F), listed as acetyl-leucine

Compound: CC(=O)NC(CC(C)C)C(=O)O (racemic) [acetyl-DL-leucine]
- LC3-II levels relative to tubulin [1]: lowering of LC3-II
- Age up to which ability to complete the bar crossing test was retained (inclusive) [2]: up to 13 weeks of age
- Motor function and hind-limb mobility/engagement, bar-crossing test [2]: improved motor function and hind-limb mobility/engagement
- Tolerability ([3]; 3 g/day one week then 5 g/day): very well tolerated
- Gait and imbalance (patient and child report) ([3]; 3 weeks after beginning treatment): gait and imbalance was significantly improved
- % of the time in the gait cycle in which both feet are in contact with the ground ([3]; after 3 weeks' treatment): 25.5%
- Cadence ([3]; after 3 weeks' treatment): 100 steps/minute
- Coefficient of variation (CV) of stride time ([3]; after 3 weeks' treatment): 1.8
- Maximum walking speed ([3]; after 3 weeks' treatment): 157 cm/s
- Natural walking speed ([3]; after 3 weeks' treatment): 96 cm/s
- Spreading width ([3]; after 3 weeks' treatment): 8.1 cm
- Step cycle length ([3]; after 3 weeks' treatment): 116 cm
- % change in Reaction Time ([4]; on-treatment vs baseline, one line per subject (66 M, 29 M, 55 F, 50 M, 53 M, 48 F), listed as acetyl-leucine): −3.593% and 1.408% and 8.13% and −10.24% and −7.474% and −30.86%
- Details on Subjective Improvement ([4]; one line per subject): Improvement in general
- Statistically significant improvement in PVT performance on treatment? [4, 7]: Yes (4×) and No (2×)
- Subjective Improvement on treatment? [4, 7]: Yes (5×) and No
- Adverse effects ([4]; person five): None reported
- Subjective measurements ([4]; person five): feeling less tired than usual
- Adverse effects ([4]; person four): None reported
- Subjective measurements ([4]; person four): improvement in general alertness
- Adverse effects ([4]; person one): None reported
- Subjective measurements ([4]; person one): shortening of the time required to go from ‘asleep’ to ‘fully awake’
- Adverse effects ([4]; person six): None reported
- Subjective measurements ([4]; person six): no difference between on and off medication
- Subjective measurements ([4]; person three): improvement in general alertness
- Adverse events ([4]; person three, first week on medication, one occasion): mild dizziness/lightheadedness
- Adverse effects ([4]; person two): None reported
- Subjective measurements ([4]; person two): improvement in general alertness
- Average step cycle time ([5]; p<0.001 vs untreated): significantly faster average step cycle times
- Hind step cycle time ([5]; p<0.01 vs untreated): significantly faster hind step cycle times
- Front step cycle time ([5]; p<0.05 vs untreated): significantly faster front step cycle times
- Time subject remained balanced ([6]; person one, end of the washout period): 8 s
- Time subject remained balanced ([6]; person one, last day of the treatment period): 12 s
- Time subject remained balanced ([6]; person three, end of the washout period): 4.01 s
- Time subject remained balanced ([6]; person three, last day of the treatment period): 7.27 s
- Time subject remained balanced ([6]; person two, end of the washout period): 3.1 s
- Time subject remained balanced ([6]; person two, last day of the treatment period): 7.9 s
- Delay of discernible disease symptoms vs untreated Npc1−/− littermates (Npc1−/− mice): two
